Data set [1] concerns Tick-borne encephalitis virus. Nature of the data set: Antiviral activity against Tick-borne encephalitis virus Absettarov infected in PEK cells assessed as inhibition of viral plaque formation after 1 hr by gentian violet staining assay. Format: functional, cell-based.
The nature of data set [2]: Chronic cytotoxicity against PEK cells after 7 days by neutral red staining assay. Format: cell-based, Sus scrofa. Particulars: pig.
Data set [3] relates to Omsk hemorrhagic fever virus. Nature of the data set: Antiviral activity against Omsk hemorrhagic fever virus Nikitina infected in PEK cells assessed as inhibition of viral plaque formation after 1 hr by gentian violet staining assay. Format: functional, cell-based.
Data set [4] in a line: Acute cytotoxicity against PEK cells after 24 hrs by neutral red staining assay. Format: cell-based, Sus scrofa. Particulars: pig.
A further data set concerns Powassan virus. Briefly: Antiviral activity against Powassan virus 24 infected in PEK cells assessed as inhibition of viral plaque formation after 1 hr by gentian violet staining assay. Format: functional, cell-based. To be noted: for pIC50: Powassan virus, 24, PEK.

Structures are written as SMILES. pIC50: −log10 of the molar value.

For orientation: pIC50 means −log10 of the IC50, conventionally taken in molar units. By CC50 is commonly meant the concentration that lowers cell viability or growth by half. High values mean lower toxicity to the cells, low ones greater toxicity to the cells. Take `CCCCc1ccc(NC(=O)CSC2=C(C#N)C(c3ccco3)C(C(=O)Nc3ccc(OCC)cc3)=C(C)N2)cc1` (racemic): the pIC50 in data set [1] is 5.60; in data set [3], less than 5.00; with Powassan virus, less than 5.00. For the same molecule, the inhibition result (in data set [1]; in data set [3]; in the data set with Powassan virus) was “Dose-dependent effect” throughout. The molecule further registered a CC50 at 168 h in data set [2] of 14 µM. For the same molecule, the CC50 at 24 h in data set [4] was 64 µM.
As to `CCc1ccc(NC(=O)CSC2=C(C#N)C(c3ccco3)C(C(=O)Nc3ccc(S(N)(=O)=O)cc3)=C(C)N2)cc1` (racemic), the pIC50 in data set [1] is less than 5.00; in data set [3], 5.00; in the data set with Powassan virus, less than 5.00. In addition, the inhibition entry (in data set [1]; in data set [3]; in the data set with Powassan virus) was “Dose-dependent effect” in each case. Besides, the CC50 at 168 h in data set [2] was 153 µM. The molecule also had a CC50 at 24 h in data set [4] of more than 250 µM.
Regarding `CCc1ccc(NC(=O)CSC2=C(C#N)C(c3ccco3)C(C(=O)Nc3ccc(Cl)cc3)=C(C)N2)cc1` (racemic), the pIC50 (in data set [1]; in data set [3]; in the data set on Powassan virus) was less than 5.00 in each case. For the same molecule, the inhibition result (in data set [1]; in data set [3]; in the data set with Powassan virus) was “Dose-dependent effect” in each case. The molecule also registered a CC50 at 168 h in data set [2] of 27 µM. The molecule further displayed a CC50 at 24 h in data set [4] of 26 µM.
On to `CCc1ccc(NC(=O)CSC2=C(C#N)C(c3ccco3)C(C(=O)Nc3ccc(CC)cc3)=C(C)N2)cc1` (racemic), for which the pIC50 (in data set [1]; in data set [3]; in the data set on Powassan virus) was less than 5.00 each time. Also, the inhibition result (in data set [1]; in data set [3]; in the data set on Powassan virus) was “Dose-dependent effect” each time. Besides, it took 33 µM to reach half-maximal cytotoxicity in data set [2] (CC50 at 168 h). Also, it took 57 µM to reach half-maximal cytotoxicity in data set [4] (CC50 at 24 h).
As to `CC1=C(C(=O)Nc2ccccc2C)C(c2ccco2)C(C#N)=C(SCC(=O)Nc2ccc3ccccc3c2)N1` (racemic), the pIC50 in data set [1] was less than 5.00; in data set [3], 5.28; in the data set with Powassan virus, less than 5.00. The inhibition result (in data set [1]; in data set [3]; in the data set on Powassan virus) was “Dose-dependent effect” each time. This molecule gave a CC50 at 168 h in data set [2] of more than 250 µM. In addition, in data set [4], the CC50 at 24 h was more than 250 µM.
Regarding `CC1=C(C(=O)Nc2ccccc2)C(c2ccco2)C(C#N)=C(SCC(=O)Nc2ccc(C)c(C)c2)N1` (racemic), the pIC50 in data set [1] is less than 5.00; in data set [3], 5.49; in the data set with Powassan virus, less than 5.00. Also, the inhibition entry (in data set [1]; in data set [3]; in the data set on Powassan virus) was “Dose-dependent effect” in each case. This molecule also gave a CC50 at 168 h in data set [2] of 19 µM. The molecule also returned a CC50 at 24 h in data set [4] of more than 250 µM.
Consider `CC1=C(C(=O)Nc2c(C)cccc2C)C(c2ccco2)C(C#N)=C(SCC(=O)Nc2nc3ccccc3s2)N1` (racemic), for which the results for the negative-log IC50 (pIC50) (in data set [1]; in data set [3]; in the data set with Powassan virus) were less than 5.00, 5.15 and less than 5.00, respectively. The inhibition entry (in data set [1]; in data set [3]; in the data set on Powassan virus) was “Dose-dependent effect” throughout. This molecule also yielded a CC50 at 168 h in data set [2] of 7 µM. The molecule also gave a CC50 at 24 h in data set [4] of more than 250 µM.

The values above are taken from ChEMBL document CHEMBL2429750, “Inhibitors of tick-borne flavivirus reproduction from structure-based virtual screening” (ACS Med Chem Lett, 2013).
